Where two headings read alike, the source gives them in different places.
Assays:
[1] = test system: Salmonella typhi (ATCC 14028); test: Microplate Alamar Blue Assay, Salmonella typhi; format: cell-based; details: Salmonella enterica; 200 μg/mL; NI = No inhibition; read-out: Percentage (%) Inhibition, Slamonella typhi
Method: (§1) The anti-bacterial activity of synthesized compound were evaluated by the Microplate Alamar Blue Assay. Staphylococcus aureus (ATCC 25923), Pseudomonas aeruginosa(POA 286), Salmonella typhi (ATCC 14028), Bacillus subtilis ATCC 6633) and Escherichia coli (ATCC 12022) were used in this study as a standard bacterial strains and they were obtained from microbial bank of PCMD, International Center for Chemical and Biological Sciences, University of Karachi, Karachi-75270, Pakistan. The bacterial colonies grown in Trypton Soya Agar (TSA) (Oxoid Limited, UK) were inoculated in Mueller Hinton Broth (MHB) (Oxoid Limited, UK) and incubated overnight at 37 °C. Fully grown bacterial cultures were then diluted to adjust with 0.5 McFarland Turbidity Index (equivalent to 1.5 × 10^8 CFU/mL). Stock solutions (4 mg/mL) of different test compounds were prepared in DMSO and 10μL each of these stock solutions were placed in well of flat bottom, polystyrene, sterile 96-wells plate except the positive control wells (media + bacteria). This gives 200μg/mL concentrations of compounds in final 200 μL solution. Each compound was run in triplicates. Finally, bacterial suspension (5 x 10^6 CFU/mL) was added in each well. Plates were sealed by parafilm and incubated at 37 °C for 18–22 hrs. Next day, 20 μL of 0.02% resazurin sodium salt dye (Chem-Impex-Int’LInc) was added in each well and incubated in shaking incubator at 80 rpm, 37 °C for 2–3 hrs. The color change from blue to reddish pink indicates the growth of bacteria. For quantitative analysis, plates were read at 570 nm and 600 nm in Multiskan GOmicroplate spectrophotometer, (Thermo Scientific, USA). The % inhibition of bacterial growth was calculated using below mentioned formula.
(§2) For the calculation of the % difference in reduction between treated and control cells in cytotoxicity/proliferation assays: =(εOX)λ2Aλ1-(εOX)λ1Aλ2oftestagent/(εOX)λ2A°λ1-(εOX)λ1A°λ2ofpositivegrowthcontrol×100

[2] = test system: Bacillus subtilis (ATCC 6633); test: Microplate Alamar Blue Assay, Bacillus subtilis; format: cell-based
Method: as §1, §2

[3] = test system: Escherichia coli (ATCC 12022); test: Microplate Alamar Blue Assay, Escherichia coli; format: cell-based
Method: as §1, §2

MTT cytotoxicity assay = format: cell-based, mouse; details: mouse; MTT, 48 hours; read-out: Cytotoxicity NIH-3T3 cell line (IC50)
Method: The cytotoxicity was recorded as concentration causing 50% growth inhibition (IC50).

[4] = test system: Staphylococcus aureus (ATCC 25923); test: Microplate Alamar Blue Assay, Staphylococcus aureus; format: cell-based; details: Staphylococcus aureus
Method: as §1, §2

[5] = test system: Pseudomonas aeruginosa (POA 286); test: Microplate Alamar Blue Assay, Pseudomonas aeruginosa; format: cell-based; details: Pseudomonas aeruginosa, read-out: Percentage (%) Inhibition, Pseudomonas aerugenosa
Method: as §1, §2

[6] = ATCC6633, 200 μg/mL, NI = No inhibition, read-out: Percentage (%) Inhibition, Bacillus subtilis
[7] = ATCC12022, 200 μg/mL, NI = No inhibition, read-out: Percentage (%) Inhibition, Escherichia coli
[8] = ATCC25923, 200 μg/mL, NI = No inhibition, read-out: Percentage (%) Inhibition, Staphylococcus aureus

Structure (SMILES) | inhibition at 200 µg/mL [1] [%] | inhibition at 200 µg/mL [2, 6] [%] | inhibition at 200 µg/mL [3, 7] [%] | IC50 (MTT cytotoxicity assay) [µM] | inhibition at 200 µg/mL [4, 8] [%] | inhibition at 200 µg/mL ([5]; 200 μg/mL, NI = No inhibition) [%] | inhibition at 200 µg/mL ([2]; ATCC6633, read-out: Percentage (%) Inhibition, Bacillus subtilis) [%] | inhibition at 200 µg/mL ([3]; ATCC12022, read-out: Percentage (%) Inhibition, Escherichia coli) [%] | IC50 at 48 h (MTT cytotoxicity assay) [µM] | inhibition at 200 µg/mL ([4]; ATCC25923, read-out: Percentage (%) Inhibition, Staphylococcus aureus) [%] | inhibition at 200 µg/mL [5] [%]
Cc1cc(C)nc(NS(=O)(=O)c2ccc(NC(=O)c3ccccc3Br)cc2)n1 [Compound 28, 2-Bromo-N-(4-(N-(4,6-dimethylpyrimidin-2-yl)sulfamoyl)phenyl)benzamide] | 11.1 | < 0 | 4.65 | > 30 | 58.5 | 3.99 | – | – | – | – | –
Cc1cc(C)nc(NS(=O)(=O)c2ccc(NC(=O)CCc3ccccc3)cc2)n1 [Compound 37, N-(4-(N-(4,6-dimethylpyrimidin-2-yl)sulfamoyl)phenyl)-3-phenylpropanamide] | < 0 | < 0 | < 0 | > 30 | 10.2 | < 0 | – | – | – | – | –
Cc1cc(C)nc(NS(=O)(=O)c2ccc(NC(=O)c3cccc(I)c3)cc2)n1 [Compound 31, N-(4-(N-(4,6-dimethylpyrimidin-2-yl)sulfamoyl)phenyl)-3-iodobenzamide] | < 0 | < 0 | < 0 | > 30 | 13 | < 0 | – | – | – | – | –
Cc1cc(C)nc(NS(=O)(=O)c2ccc(NC(=O)c3cc([N+](=O)[O-])cc([N+](=O)[O-])c3)cc2)n1 [Compound 26, N-(4-(N-(4,6-dimethylpyrimidin-2-yl)sulfamoyl)phenyl)-3,5-dinitrobenzamide] | < 0 | – | – | – | – | – | < 0 | < 0 | > 30 | 34.7 | < 0
Cc1cc(C)nc(NS(=O)(=O)c2ccc(NC(=O)c3ccc([N+](=O)[O-])cc3)cc2)n1 [Compound 25, N-(4-(N-(4,6-dimethylpyrimidin-2-yl)sulfamoyl)phenyl)-4-nitrobenzamide] | 4.64 | < 0 | 1.21 | > 30 | 17.5 | 6.35 | – | – | – | – | –
COc1cc(OC)cc(C(=O)Nc2ccc(S(=O)(=O)Nc3nc(C)cc(C)n3)cc2)c1 [Compound 33, N-(4-(N-(4,6-dimethylpyrimidin-2-yl)sulfamoyl)phenyl)-3,5-dimethoxybenzamide] | < 0 | < 0 | < 0 | > 30 | 31.3 | < 0 | – | – | – | – | –
Cc1cc(C)nc(NS(=O)(=O)c2ccc(NC(=O)c3ccc(F)c(F)c3)cc2)n1 [Compound 18, N-(4-(N-(4,6-dimethylpyrimidin-2-yl)sulfamoyl)phenyl)-3,4-difluorobenzamide] | 22.5 | < 0 | < 0 | > 30 | 49.7 | < 0 | – | – | – | – | –
Cc1cc(C)nc(NS(=O)(=O)c2ccc(NC(=O)c3cccc(Br)c3)cc2)n1 [Compound 30, 3-Bromo-N-(4-(N-(4,6-dimethylpyrimidin-2-yl)sulfamoyl)phenyl)benzamide] | 4.26 | < 0 | < 0 | > 30 | 34.2 | < 0 | – | – | – | – | –
Cc1cc(C)nc(NS(=O)(=O)c2ccc(NC(=O)c3ccccc3C)cc2)n1 [Compound 35, N-(4-(N-(4,6-dimethylpyrimidin-2-yl)sulfamoyl)phenyl)-2-methylbenzamide] | 0.2 | < 0 | < 0 | > 30 | < 0 | 16.5 | – | – | – | – | –
Cc1cc(C)nc(NS(=O)(=O)c2ccc(NC(=O)c3cc(Cl)ccc3Cl)cc2)n1 [Compound 23, 2,5-dichloro-N-(4-(N-(4,6-dimethylpyrimidin-2-yl)sulfamoyl)phenyl)benzamide] | < 0 | < 0 | < 0 | > 30 | 5.76 | 1.54 | – | – | – | – | –
CC1COc2c(N3CCN(C)CC3)c(F)cc3c(=O)c(C(=O)O)cn1c23 (stereo not shown) [Ofloxacin, reference compound] | 89.8 | 93.8 | 94.4 | – | 94.1 | 94.1 | – | – | – | – | –
Cc1ccc(C(=O)Nc2ccc(S(=O)(=O)Nc3nc(C)cc(C)n3)cc2)cc1 [Compound 34, N-(4-(N-(4,6-dimethylpyrimidin-2-yl)sulfamoyl)phenyl)-4-methylbenzamide] | 0.65 | < 0 | < 0 | > 30 | < 0 | 15.4 | – | – | – | – | –
Cc1cc(C)nc(NS(=O)(=O)c2ccc(NC(=O)c3ccccc3F)cc2)n1 [Compound 17, N-(4-(N-(4,6-dimethylpyrimidin-2-yl)sulfamoyl)phenyl)-2-fluorobenzamide] | – | < 0 | < 0 | > 30 | 24.3 | < 0 | – | – | – | – | –
Cc1cc(C)nc(NS(=O)(=O)c2ccc(NC(=O)c3cccc(C(F)(F)F)c3F)cc2)n1 [Compound 14, N-(4-(N-(4,6-dimethylpyrimidin-2-yl)sulfamoyl)phenyl)-2-fluoro-3-(trifluoromethyl)benzamide] | 25.4 | < 0 | < 0 | > 30 | 27.4 | 1.04 | – | – | – | – | –
Cc1cc(C)nc(NS(=O)(=O)c2ccc(NC(=O)c3ccccc3)cc2)n1 [Compound 39, N-(4-(N-(4,6-dimethylpyrimidin-2-yl)sulfamoyl)phenyl)benzamide] | 12.5 | < 0 | 1.84 | > 30 | 41.1 | < 0 | – | – | – | – | –
Cc1cc(C)nc(NS(=O)(=O)c2ccc(NC(=O)c3cccc(F)c3)cc2)n1 [Compound 16, N-(4-(N-(4,6-dimethylpyrimidin-2-yl)sulfamoyl)phenyl)-3-fluorobenzamide] | 19.4 | < 0 | < 0 | > 30 | 47.2 | < 0 | – | – | – | – | –
Cc1cccc(C(=O)Nc2ccc(S(=O)(=O)Nc3nc(C)cc(C)n3)cc2)c1 [Compound 36, N-(4-(N-(4,6-dimethylpyrimidin-2-yl)sulfamoyl)phenyl)-3-methylbenzamide] | < 0 | < 0 | < 0 | > 30 | < 0 | 20.5 | – | – | – | – | –
Cc1cc(C)nc(NS(=O)(=O)c2ccc(NC(=O)c3ccc(Br)cc3)cc2)n1 [Compound 29, 4-Bromo-N-(4-(N-(4,6-dimethylpyrimidin-2-yl)sulfamoyl)phenyl)benzamide] | 14.1 | < 0 | < 0 | > 30 | 52.3 | 15 | – | – | – | – | –
Cc1cc(C)nc(NS(=O)(=O)c2ccc(NC(=O)c3ccc(C(F)(F)F)cc3)cc2)n1 [Compound 19, N-(4-(N-(4,6-dimethylpyrimidin-2-yl)sulfamoyl)phenyl)-4-(trifluoromethyl)benzamide] | 0.99 | < 0 | < 0 | > 30 | 49.4 | 2.37 | – | – | – | – | –
Cc1cc(C)nc(NS(=O)(=O)c2ccc(NC(=O)c3ccc(Cl)cc3)cc2)n1 [Compound 22, 4-chloro-N-(4-(N-(4,6-dimethylpyrimidin-2-yl)sulfamoyl)phenyl)benzamide] | 11.6 | < 0 | < 0 | > 30 | 44.3 | 9.78 | – | – | – | – | –

Reference: publication PMC6300282, “Sulphamethazine derivatives as immunomodulating agents: New therapeutic strategies for inflammatory diseases” (PLoS ONE, 2018)
